Data: ChEMBL document CHEMBL4765465, “Photoactive Bifunctional Degraders: Precision Tools To Regulate Protein Stability” (J Med Chem, 2020)

Tests used:
CWR22R = assay: Growth inhibition of human 22Rv1 cells preincubated for 15 mins followed by UV irradiation and measured after 72 hrs by Celltiter-Glo assay; assay type: functional; conditions: time 72.25 hrs
[1] = Half life of compound by UV-Visible spectrophotometric method; assay type: physicochemical

| Structure (SMILES) | growth inhibition (GI) (CWR22R) | half-life [1] |
| --- | --- | --- |
| Cc1sc2c(c1C)C(c1ccc(Cl)cc1)=N[C@@H](CC(=O)NCCOCCOCCNC(=O)COc1cccc3c1C(=O)N(C1CCC(=O)N(COC(C)c4cc5c(cc4[N+](=O)[O-])OCO5)C1=O)C3=O)c1nnc(C)n1-2 (some centres not stated) | <=39% |  |
| COc1cc(COC(=O)N2C(=O)CCC(N3C(=O)c4cccc(OCC(=O)NCCCCNC(=O)C[C@@H]5N=C(c6ccc(Cl)cc6)c6c(sc(C)c6C)-n6c(C)nnc65)c4C3=O)C2=O)c([N+](=O)[O-])cc1OC (some centres not stated) |  | 58 min |
